# Results from ChEMBL document CHEMBL4316584, “All that glitters is not gold: Panning cytotoxic natural products and derivatives with a fused tricyclic backbone by the estimation of their leadlikeness for cancer treatment” (Eur J Med Chem, 2019).
# Experiments:
# HeLa = test: Cytotoxicity against human HeLa cells after 48 hrs by MTT assay; type: functional, cell-based
# HCT-116 = test: Cytotoxicity against human HCT116 cells after 48 hrs by MTT assay; type: functional, cell-based; conditions: HCT-116, 48 h
Compound,IC50 (HeLa),IC50 (HCT-116)
CC(C)C1=C(O)C(=O)C2=C(C=C[C@H]3C(C)(C)CCC[C@]23C)C1=O,6.56 µM,
COc1cc2oc3cc(O)c(OC)c(CC=C(C)C)c3c(=O)c2c(O)c1CC=C(C)C,12.8 µM,
CC(C)c1cc2c(cc1O)[C@@]1(C)CCCC(C)(C)[C@@H]1[C@@H](O)C2=O,7.7 µM,
Nc1ccc(C(=O)/C=C/c2cc3c([nH]c4ccccc43)c(-c3ccc(F)cc3)n2)cc1,18.5 µM,
COc1cc(-c2nc(/C=C/C(=O)c3ccc(N)cc3)cc3c2[nH]c2ccccc23)ccc1F,15.2 µM,
COc1cc(-c2nc(/C=C/C(=O)c3ccc(F)cc3)cc3c2[nH]c2ccccc23)cc(OC)c1OC,13.4 µM,
COc1ccc(-c2nc(/C=C/C(=O)c3ccc(N)cc3)cc3c2[nH]c2ccccc23)cc1OC,13.5 µM,
COc1cc(-c2nc(/C=C/C(=O)c3ccc(O)cc3)cc3c2[nH]c2ccccc23)cc(OC)c1OC,12.5 µM,
CCOC(=O)CN(C)CC1CCc2c(n(C)c3ccccc23)C1=O (stereo unspecified),,18.9 µM
NCCCCNCCNCc1c2ccccc2c(CNCCNCCCCN)c2ccccc12,20 µM,
Cc1cc(C)cc(NC(=O)[C@H](C)NC(=S)NC(=O)[C@]2(C)CCC[C@]3(C)c4ccc(C(C)C)cc4CC[C@@H]23)c1,18.6 µM,
CC(C)c1cc(C(=O)O)c2c(c1O)O[C@H]1C(C)(C)CCC[C@]21C,17.8 µM,
COc1cc(-c2nc(C3CC(c4cccs4)=NN3C(C)=O)cc3c2[nH]c2ccccc23)cc(OC)c1OC (stereo unspecified),4.51 µM,
CC(=O)N1N=C(c2cccs2)CC1c1cc2c([nH]c3ccccc32)c(-c2ccc(F)c(F)c2)n1 (stereo unspecified),8.7 µM,
C[C@]1(O)Cc2c(O)c3c(c(O)c2[C@H](O)[C@H]1O)C(=O)C(SCCCO)=C(SCCCO)C3=O,,3.08 µM
COc1cc(NC(=O)[C@H](Cc2ccccc2)NC(=S)NC(=O)[C@]2(C)CCC[C@]3(C)c4ccc(C(C)C)cc4CC[C@@H]23)cc(OC)c1OC,17.5 µM,
Cn1c2c(c3ccccc31)CCC(CN1CCOCC1)C2=O (stereo unspecified),,4.73 µM
CCCCCCOc1cccc2c1C(=O)c1c(OCCCCCC)cc(Cn3cnc4c(N)ncnc43)cc1C2=O,,8.1 µM
CC1CCN(C2=CC(=O)c3c(O)c4c(c(O)c3C2=O)C[C@](C)(O)[C@H](O)[C@H]4O)CC1,,3.25 µM
Cc1nccc2c3ccccc3n(CCCCn3c4ccccc4c4ccnc(C)c43)c12,,3.58 µM
COc1c(O)cc2oc3cc(O)c(C/C=C(/C)CO)c(O)c3c(=O)c2c1CCC(C)(O)CCC=C(C)C (stereo unspecified),17.2 µM,

Compound,IC50 (HeLa),IC50 (HCT-116)
O=C(/C=C/c1cc2c([nH]c3ccccc32)c(-c2ccc(C(F)(F)F)cc2)n1)c1cccs1,9.54 µM,
Cc1cc(C)cc(NC(=O)[C@H](Cc2ccccc2)NC(=S)NC(=O)[C@]2(C)CCC[C@]3(C)c4ccc(C(C)C)cc4CC[C@@H]23)c1,15.8 µM,
Nc1ncnc2c1ncn2Cc1cc(O)c2c(c1)C(=O)c1cccc(O)c1C2=O,,7.8 µM
COc1cc(-c2nc(Cn3cc(CN4C(=O)c5ccc(C)cc5C4=O)nn3)cc3c2[nH]c2ccccc23)cc(OC)c1OC,15.6 µM,
COc1ccc(NC(=O)[C@H](Cc2ccccc2)NC(=S)NC(=O)[C@]2(C)CCC[C@]3(C)c4ccc(C(C)C)cc4CC[C@@H]23)cc1,15.6 µM,
COc1cc(NC(=O)[C@H](C)NC(=S)NC(=O)[C@]2(C)CCC[C@]3(C)c4ccc(C(C)C)cc4CC[C@@H]23)cc(OC)c1OC,18.1 µM,
CC(C)c1ccc2c(c1)CC[C@H]1[C@](C)(C(=O)NC(=S)N[C@@H](Cc3ccccc3)C(=O)Nc3ccccc3Cl)CCC[C@]21C,17 µM,
CCCCn1c2c(c3ccccc31)CCC(CN1CCOCC1)C2=O (stereo unspecified),,5.82 µM
Cn1c2c(c3ccccc31)CCC(CN1CCCCC1)C2=O (stereo unspecified),,2.33 µM
CCCCCCNC1=CC(=O)c2c(O)c3c(c(O)c2C1=O)C[C@](C)(O)[C@H](O)C3,,3.14 µM
CC(=O)N1N=C(c2cccs2)CC1c1cc2c([nH]c3ccccc32)c(-c2ccc(C(F)(F)F)cc2)n1 (stereo unspecified),19 µM,
CC(C)=CCn1c2c(c3ccccc31)CCC(CN1CCOCC1)C2=O (stereo unspecified),,4.55 µM
CCN(C)CC1CCc2c(n(C)c3ccccc23)C1=O (stereo unspecified),,11.8 µM
CCOc1ccc(/C=C2\CCc3c([nH]c4ccc(C)cc34)C2=O)cc1OCC,0.8 µM,
CC1CCN(C2=CC(=O)c3c(O)c4c(c(O)c3C2=O)C[C@](C)(O)[C@H](O)C4)CC1,,14.9 µM
CC(=O)N1N=C(c2ccco2)CC1c1cc2c([nH]c3ccccc32)c(-c2ccc(F)c(F)c2)n1 (stereo unspecified),3.38 µM,
Cc1cccc2c1ccc1cc(C(C)CO)c(=O)oc12 (stereo unspecified),0.86 µM,
CCOc1ccc(/C=C2\CCc3c([nH]c4c(C)cccc34)C2=O)cc1OCC,1.5 µM,
CC(=O)N1N=C(c2ccc[nH]2)CC1c1cc2c([nH]c3ccccc32)c(-c2ccc(C(F)(F)F)cc2)n1 (stereo unspecified),6.24 µM,
CCOc1ccc(/C=C2\CCc3c([nH]c4ccc(Cl)cc34)C2=O)cc1OCC,2.73 µM,
CC(C)c1ccc2c(c1)CC[C@H]1[C@](C)(C(=O)NC(=S)N[C@@H](Cc3ccccc3)C(=O)Nc3ccc(Br)cc3)CCC[C@]21C,15.7 µM,

Compound,IC50 (HeLa),IC50 (HCT-116)
CC(C)c1ccc2c(c1)CC[C@H]1[C@](C)(C(=O)NC(=S)N[C@@H](Cc3ccccc3)C(=O)Nc3ccccc3Br)CCC[C@]21C,12.7 µM,
O=c1c2ccc(O)c(O)c2oc2cc(O)cc(O)c12,,18.6 µM
C[C@]1(O)Cc2c(O)c3c(c(O)c2C[C@H]1O)C(=O)C=C(N1CCCCC1)C3=O,,16.3 µM
Cn1c2c(c3ccccc31)CCC(CN1CCCC1)C2=O (stereo unspecified),,12.8 µM
CC(=O)O[C@@H]1[C@H](C)CC(O)=C2C(=O)c3c(ccc(-c4ccc(O)c5c4O[C@@]4(CO)C(=C(O)C[C@@H](C)[C@H]4OC(C)=O)C5=O)c3O)O[C@@]21CO,,7.12 µM
CC(C)c1ccc2c(c1)CC[C@H]1[C@](C)(C(=O)NC(=S)N[C@@H](Cc3ccccc3)C(=O)Nc3cccc4ccccc34)CCC[C@]21C,12.8 µM,
CO[C@H]1[C@H](O)C[C@@H](O[C@@H]2C[C@H](Oc3cc4cc5c(c(O)c4c(O)c3C)C(=O)[C@@H](O[C@H]3C[C@H](O[C@H]4C[C@H](O[C@H]6C[C@@](C)(O)[C@@H](OC(C)=O)[C@H](C)O6)[C@H](O)[C@@H](C)O4)[C@H](O)[C@@H](C)O3)[C@H]([C@H](OC)C(=O)[C@@H](O)[C@@H](C)O)C5)O[C@H](C)[C@H]2OC(C)=O)O[C@@H]1C,,0.3 µM
COc1cc(-c2nc(/C=C/C(=O)c3cccs3)cc3c2[nH]c2ccccc23)cc(OC)c1OC,6.91 µM,
CCSC1=C(SCC)C(=O)c2c(O)c3c(c(O)c2C1=O)C[C@](C)(O)[C@H](O)[C@H]3O,,0.95 µM
CC(C)c1ccc2c(c1)CC[C@H]1[C@](C)(C(=O)NC(=S)N[C@@H](C)C(=O)Nc3ccccn3)CCC[C@]21C,14.3 µM,
CC(C)c1ccc2c(c1)CC[C@H]1[C@](C)(C(=O)NC(=S)N[C@@H](C)C(=O)Nc3ccccc3Cl)CCC[C@]21C,19.7 µM,
COc1c(O)cc2oc3cc(O)c(C/C=C(/C)CO)c(O)c3c(=O)c2c1C/C=C(\C)CCCC(C)(C)O,16.7 µM,
CC(=O)OC[C@]12Oc3ccc(-c4ccc(O)c5c4O[C@@]4(CO)C(=C(O)C[C@@H](C)[C@H]4OC(C)=O)C5=O)c(O)c3C(=O)C1=C(O)C[C@@H](C)[C@H]2OC(C)=O,,6.92 µM
Cc1ccccc1NC(=O)[C@H](Cc1ccccc1)NC(=S)NC(=O)[C@]1(C)CCC[C@]2(C)c3ccc(C(C)C)cc3CC[C@@H]12,17.7 µM,
CC(C)c1ccc2c(c1)CC[C@H]1[C@](C)(C(=O)NC(=S)N[C@@H](C)C(=O)Nc3ccc(Br)cc3)CCC[C@]21C,19 µM,
C[C@]1(O)Cc2c(O)c3c(c(O)c2[C@H](O)[C@H]1O)C(=O)C=C(Nc1ccccc1)C3=O,,4.84 µM
Cc1cccc2c1ccc1cc(C(C)C)c(=O)oc12,7.92 µM,
CN1CCN(CC2CCc3c(n(C)c4ccccc34)C2=O)CC1 (stereo unspecified),,14 µM
CC(C)c1ccc2c(c1)CC[C@H]1[C@](C)(C(=O)NC(=S)N[C@@H](Cc3ccccc3)C(=O)Nc3ccc(Cl)cc3)CCC[C@]21C,17.2 µM,
CCCCCCSC1=C(SCCCCCC)C(=O)c2c(O)c3c(c(O)c2C1=O)C[C@](C)(O)[C@H](O)[C@H]3O,,0.74 µM
CNC1=CC(=O)c2c(O)c3c(c(O)c2C1=O)C[C@](C)(O)[C@H](O)C3,,16.6 µM

Compound,IC50 (HeLa),IC50 (HCT-116)
O=C(/C=C/c1cc2c([nH]c3ccccc32)c(-c2ccc(C(F)(F)F)cc2)n1)c1ccc[nH]1,7.24 µM,
CC(C)=CCc1c(O)cc(O)c2c(=O)c3c(O)cccc3oc12,,10.8 µM
C[C@]1(O)Cc2c(O)c3c(c(O)c2[C@H](O)[C@H]1O)C(=O)C=C(NCc1ccc(F)cc1)C3=O,,4.92 µM
Cn1c2c(c3ccccc31)CCC(Cn1ccnc1)C2=O (stereo unspecified),,3.12 µM
Cc1ccc(NC(=O)[C@H](Cc2ccccc2)NC(=S)NC(=O)[C@]2(C)CCC[C@]3(C)c4ccc(C(C)C)cc4CC[C@@H]23)cc1,19.1 µM,
CC(C)c1ccc2c(c1)CC[C@H]1[C@](C)(C(=O)NC(=S)N[C@@H](Cc3ccccc3)C(=O)Nc3ccccn3)CCC[C@]21C,6.58 µM,
C=CCc1cc2oc3cc(OC)cc(O)c3c(=O)c2c(OC)c1O,18.7 µM,
CCCCCCSC1=C(SCCCCCC)C(=O)c2c(O)c3c(c(O)c2C1=O)C[C@@H](O)[C@@](C)(O)C3,,2.94 µM
CCCCSC1=C(SCCCC)C(=O)c2c(O)c3c(c(O)c2C1=O)C[C@@H](O)[C@@](C)(O)C3,,2.75 µM
CCCCNC1=CC(=O)c2c(O)c3c(c(O)c2C1=O)C[C@](C)(O)[C@H](O)C3,,3.29 µM
O=C1c2cccc(O)c2C(=O)c2c(O)cc(Cn3cc(F)c(=O)[nH]c3=O)cc21,,2.8 µM
C[C@]1(O)Cc2c(O)c3c(c(O)c2C[C@H]1O)C(=O)C=C(NCc1ccc(F)cc1)C3=O,,7.09 µM
CC(C)c1ccc2c(c1)CC[C@H]1[C@](C)(C(=O)NC(=S)N[C@@H](Cc3ccccc3)C(=O)Nc3ccccc3F)CCC[C@]21C,18.8 µM,
O=c1c2ccc(O)cc2oc2cc(O)cc(O)c12,,19.8 µM
O=c1c2ccc(O)c(O)c2oc2c(O)c(O)ccc12,,18.5 µM
COc1c(O)cc2oc3cc(O)c(CC=C(C)C)c(O)c3c(=O)c2c1C/C=C(\C)CCC=C(C)C [COWANIN],11.7 µM,
COc1cc2c(=O)c3c(O)c(C/C=C(\C)CCC=C(C)C)c(O)cc3oc2cc1O [COWAXANTHONE],15.8 µM,
CC(C)c1ccc2c(c1)CC[C@H]1[C@](C)(CO)CCC[C@]21C [POMIFERIN A],15.7 µM,
